The results in this text go back to US20250195468A1, “METHODS AND COMPOSITIONS FOR TREATING COLORECTAL CANCER WITH INDOXYL SULFATE” (National Institute of Immunology, priority 2023, published 2025).

Experiment [1] deals with HT-29 cells. In words: CellTiter-Glo luminescent cell viability assay (ATP content). The settings on record: Homo sapiens; HT-29, 72 hours; concentration not stated in b112 (FIG. 2: most cytotoxic at 10 mM). It is filed as cell-based. Here is the method: Cell viability was also assessed using the CellTiter-Glo R: Assay kit, which measures the amount of ATP to indicate cellular metabolic activity. HT-29 and HCT-116 cells were cultured in a 96-well plate at a density of 2500 cells per well. After 24 hours of seeding, the cells were exposed to various concentrations of IS, including 0.018 mM, 0.037 mM, 0.075 mM. 0.15 mM, 0.31 mM, 0.62 mM, 1.25 mM, 2.5 mM, 5 mM, and 10 mM. Triplicate wells were treated with IS for two different incubation periods: 48 hours and 72 hours. After the respective incubation periods. the assay was performed following the manufacturer's protocol. The details of the protocol can be found in the kit provided by the manufacturer. In summary, luminescence was measured using a Sirius Luminometer V3.2 (Berthold DETECTIONN SYSTEMS) with a measurement delay time of 2 seconds and a measurement time of 5 seconds. Non-treated cells were used as controls, representing 100% metabolically active cells in terms of ATP content.

The test system of experiment [2] is HCT-116 cells. In words: Membrane integrity by LDH assay. The settings on record: 48 hours, 0.1% Triton X-100 = 100%. It is filed as cell-based, human. On the procedure: (§1) Membrane integrity was assessed using the LDH based in vitro toxicology kit obtained from Sigma-Aldrich. The assay was conducted following the manufacturer's protocol. HCT-116 and HT-29 cells were cultured in a 96-well plate at a density of 10,000 cells per well. After 24 hours of seeding, the cells were treated with IS at concentrations of 1.25 mM, 5 mM, and 10 mM. Following a 48-hour treatment period, the cells were centrifuged, and 100 μl of supernatant was collected into a fresh 96-well plate to measure the amount of LDH released into the media by necrotic cells. Subsequently, 100 μl of the dosing reagent was added and incubated for 30 minutes at 37° C. After incubation, 20 μl of […] stop solution was added. Absorbance was measured at 690 nm and 490 nm using a ClarioStar plate reader (BMG Labtech, Ortenberg, Germany). The background absorbance at 690 nm was subtracted from the 490 nm absorbance. For the positive control, 0.1% Triton X-100 was used and considered as maximum LDH release. Untreated cells served as the negative control. The membrane integrity of IS-exposed cells was compared to that of untreated cells. The following formula was used to calculate the LDH release from the cells: Experimental LDH release (OD490)×100/maximum LDH release (OD490).

In experiment [3] the test system is HT-29 cells. In words: Membrane integrity by LDH assay. It is filed as cell-based, human. The settings on record: 48 hours, 0.1% Triton X-100 = 100%. On the procedure: as §1
For experiment [4], the system named is HCT-116 cells. The experiment can be described thus: Cell cycle assay, PI flow cytometry. It is filed as cell-based, human. The settings on record: HCT-116, 48 hours, 5 mM and 10 mM (not resolved); increased from 18.1±1.99. Here is the method:
(§2) The evaluation of the effect of IS on the progression of HCT-116 and HT-29 cell cycle assay involved analysing the G0/G1 phase, Synthesis(S) phase, and G2/M phase. Cells were initially cultured in a 6-well plate with a seeding density of (2×10^5) cells/well in duplicate. After 24 hours of seeding, the cells were treated with varying concentrations of IS (1.25 mM, 5 mM, and 10 mM). Following a 48-hour processing period, the cells were detached using trypsin and washed twice with refrigerated PBS. The resulting cell pellet was then dissolved in 200 ul of chilled PBS and fixed by adding 800 ul of 70% ethanol dropwise. The samples were stored at −20° C. overnight for later use. After the overnight incubation, the cells were centrifuged at 2000 rpm for 5 minutes at 4° C. The pellet was dissolved in 300 ul of PBS, 50 ul of RNase A (100 ug/ml), and 35 ul of Triton X-100 (0.1%), and incubated at 37° C. for 30 minutes. Subsequently, 20 ul of PI was added from a stock solution of 500 μg/ml, and the samples were incubated in the dark for an additional 30 minutes. Flow cytometry (BD Biosciences, FACS Verse, Germany) was employed to measure PI staining in 1×10^3 cells. The Flow Jo software was utilized for the analysis of cell distribution across the different phases of the cell cycle.
On the technique in general: In flow cytometry, cells or beads pass a laser one at a time.

Experiment [5] deals with HT-29 cells. In words: Cell cycle assay, PI flow cytometry. It is filed as cell-based, human. As to conditions: HT-29, 48 hours, 5 mM and 10 mM (not resolved); increased from 14.2±0.5. On the procedure:
as §2

Experiment [6] relates to HCT-116 cells. The experiment can be described thus: Clonogenic (colony forming) assay. The settings on record: HCT-116, 1.25-10 mM for 48 hours, 10 days colony growth. Type of experiment: cell-based, human. On the procedure: (§3) To assess the colony-forming ability of cells after treatment with IS, a colony forming assay was performed. HCT-116 and HT-29 cells were cultured in 6-well plates at a density of 2×10^5 cells per well. After 24 hours of seeding, the cells were exposed to IS at concentrations of 1.25 mM, 5 mM, and 10 mM. Following a 48-hour treatment period, the cells were harvested using trypsin and counted for each treatment. From each treatment group, 400, 800, and 1200 cells were plated and incubated for 10 days in 6-well plates. During the incubation period, the media were replenished every alternate day. After 10 days, the colonies were washed with PBS and stained with 0.5% crystalline violet. The cells were then fixed with 6% glutaraldehyde. The colonies were visualized and counted using ImageJ software. The clonogenic efficiency of the treated cells was compared to that of the untreated cells.

Experiment [7] deals with HT-29 cells. In words: Clonogenic (colony forming) assay. As to conditions: HT-29, 1.25-10 mM for 48 hours, 10 days colony growth. Type of experiment: cell-based, human. On the procedure:
as §3

In experiment [8] the test system is human adenocarcinoma cells. The experiment can be described thus: Oxidative stress by DHE staining. Type of experiment: cell-based. The settings on record: DHE staining after 48 hours of treatment. Here is the method: In the in vitro study, cells were exposed to various doses of indoxyl sulfate ranging from 0.038 mM to 10 mM for three different incubation periods (24 hours, 48 hours, and 72 hours). A decrease in cell proliferation efficiency was observed after 48 hours of treatment, with the most significant effects observed at concentrations of 5 mM and 10 mM of indoxyl sulfate. […] Decrease in cellular ATP content indicates the diminished cellular metabolic activity and may be linked with cell death. Considering these findings. the apoptotic effect of indoxyl sulfate was examined. […] Another study on the osteoblast cell line MC3T3-E1 also confirmed that IS acts as a bone toxin by inducing cell apoptosis and inhibiting differentiation. […] To account for this study. cells were also assessed for oxidative stress in this invention by staining them with […] (DHE) after 48 hours of treatment. […] The potential for IS to cause DNA damage was also investigated.

Counter-ions that a name gives are not always drawn.

A word on the viability: it is the share of living cells, or the viability signal relative to a control. The molecule `O=S(=O)(O)Oc1c[nH]c2ccccc12` [IS, Indoxyl Sulfate] registered a viability at 10000 µM in experiment [1] of 19%. Also, the “LDH release in the supernatant” value in experiment [2] (HCT-116, 5 mM) came out at 80%; in experiment [2] (HCT-116, 10 mM) it was 86%; in experiment [3] (HT-29, 5 mM) it was 82%; in experiment [3] (HT-29, 10 mM), 85%. Further, the entries for the “number of cells in the G2/M phase” value in experiment [4] and in experiment [5] were 22.7±3.2 and 17.3±0.7, respectively. Besides, the “number of colonies formed compared to control” value in experiment [6] and in experiment [7] was “significant reduction in the number of colonies formed” throughout. In addition, the “production of ROS” value in experiment [8] was “did not cause any production of ROS”.
